# Results: ChEMBL document CHEMBL5634085, “Design, synthesis and antitrypanosomatid activity of 2-nitroimidazole-3,5-disubstituted isoxazole compounds based on benznidazole” (Eur J Med Chem, 2023)
# The source made the active and inactive calls. The calls are words filed in the database; no cut-off is given here.
# Tested on: Trypanosoma cruzi
# Experiment: Antitrypanosomal activity against Trypanosoma cruzi Y trypomastigotes infected in BALB/c mouse model assessed as reduction of parasite load in cardiac tissue by measuring reduction in DNA copy number at 25 mg/kg/day, po administered via gavage observed on 11 day of post infection by qPCR analysis relative to control
# Assay type: functional
# Design: scale not given: the % may be the effect or the level left
# Settings: not given
row,SMILES,Activity [%]
1,CCN1CCN(c2ccc(-c3cc(Cn4ccnc4[N+](=O)[O-])on3)cc2)CC1,73

# Tested on: Trypanosoma cruzi
# Experiment: Potency index, ratio of benznidazole IC50 to test compound IC50 for antitrypanosomal activity against Trypanosoma cruzi Tulahuen lacZ expressing beta-galactosidase amastigotes infected in monkey LLC-MK2 cells assessed as inhibition of amastigotes pre-infected in cells for 48 hrs followed by compound addition and measured after 72 hrs by CPRG reagent based absorbance analysis
# Assay type: functional
# Settings: not given
row,SMILES,Ratio IC50
1,O=[N+]([O-])c1nccn1Cc1cc(-c2ccc(O)cc2)no1,12
2,CN1CCN(c2ccc(-c3cc(Cn4ccnc4[N+](=O)[O-])on3)cc2)CC1,10
3,O=[N+]([O-])c1ccc(-c2cc(Cn3ccnc3[N+](=O)[O-])on2)o1,5.4
4,COc1ccc(-c2cc(Cn3ccnc3[N+](=O)[O-])on2)cc1OC,15

# Tested on: not listed separately
# Experiment: Cytotoxicity against monkey LLC-MK2 cells incubated for 72 hrs by MTT assay
# Assay type: toxicity, cell-based, Macaca mulatta
# Settings: rhesus monkey
row,SMILES,CC50 at 72 h [µM]
1,COc1cc(OC)c(Cl)c(-c2cc(Cn3ccnc3[N+](=O)[O-])on2)c1,> 50
2,O=[N+]([O-])c1nccn1Cc1cc(-c2ccc(O)cc2)no1,> 50
3,O=[N+]([O-])c1nccn1Cc1cc(-c2ccc(N3CCN(CCO)CC3)cc2)no1,> 50
4,CCN1CCN(c2ccc(-c3cc(Cn4ccnc4[N+](=O)[O-])on3)cc2)CC1,> 50
5,COc1ccc(-c2cc(Cn3ccnc3[N+](=O)[O-])on2)cc1[N+](=O)[O-],> 50
6,CN1CCN(c2ccc(-c3cc(Cn4ccnc4[N+](=O)[O-])on3)cc2)CC1,> 50
7,O=[N+]([O-])c1ccc(-c2cc(Cn3ccnc3[N+](=O)[O-])on2)o1,> 50
8,COc1ccc(-c2cc(Cn3ccnc3[N+](=O)[O-])on2)cc1OC,> 50

# Tested on: not listed separately
# Experiment: Selectivity index, ratio of CC50 for cytotoxicity against monkey LLC-MK2 cells to IC50 for antileishmanial activity against Leishmania amazonensis IFLA/BR/1967/PH8 amastigotes infected in mouse peritoneal macrophage
# Assay type: toxicity, cell-based
# Settings: read-out: Ratio CC50/IC50
row,SMILES,selectivity ratio
1,COc1cc(OC)c(Cl)c(-c2cc(Cn3ccnc3[N+](=O)[O-])on2)c1,> 22.6
2,O=[N+]([O-])c1nccn1Cc1cc(-c2ccc(O)cc2)no1,> 2.7
3,O=[N+]([O-])c1nccn1Cc1cc(-c2ccc(N3CCN(CCO)CC3)cc2)no1,> 8.8
4,CCN1CCN(c2ccc(-c3cc(Cn4ccnc4[N+](=O)[O-])on3)cc2)CC1,> 9
5,COc1ccc(-c2cc(Cn3ccnc3[N+](=O)[O-])on2)cc1[N+](=O)[O-],> 3.3
6,CN1CCN(c2ccc(-c3cc(Cn4ccnc4[N+](=O)[O-])on3)cc2)CC1,> 3.2
7,COc1ccc(-c2cc(Cn3ccnc3[N+](=O)[O-])on2)cc1OC,> 2.5

# Tested on: Leishmania amazonensis
# Experiment: Potency index, ratio of pentamidine IC50 to test compound IC50 for antileishmanial activity against Leishmania amazonensis IFLA/BR/1967/PH8 amastigotes infected in mouse peritoneal macrophage assessed as inhibition of parasite growth pre-infected in cells for 4 hrs followed by compound addition and measured after 24 hrs by Giemsa staining based analysis
# Assay type: functional, Peritoneal macrophage cell
# Settings: not given
row,SMILES,Ratio IC50
1,COc1cc(OC)c(Cl)c(-c2cc(Cn3ccnc3[N+](=O)[O-])on2)c1,7.6
2,O=[N+]([O-])c1nccn1Cc1cc(-c2ccc(N3CCN(CCO)CC3)cc2)no1,2.9

# Tested on: Trypanosoma cruzi
# Experiment: Antitrypanosomal activity against Trypanosoma cruzi Y trypomastigotes infected in BALB/c mouse model assessed as reduction of parasitemia level at 25 mg/kg/day, po administered via gavage administrated for consecutive 10 days and measured on day 11
# Assay type: functional, organism-based
# Settings: time 11.0 day
row,SMILES,Activity
1,CCN1CCN(c2ccc(-c3cc(Cn4ccnc4[N+](=O)[O-])on3)cc2)CC1,inactive

# Tested on: Trypanosoma cruzi
# Experiment: Antitrypanosomal activity against Trypanosoma cruzi Tulahuen lacZ expressing beta-galactosidase amastigotes infected in monkey LLC-MK2 cells assessed as inhibition of amastigotes pre-infected in cells for 48 hrs followed by compound addition and measured after 72 hrs by CPRG reagent based absorbance analysis
# Assay type: functional, organism-based
# Settings: not given
row,SMILES,IC50 [µM]
1,COc1cc(OC)c(Cl)c(-c2cc(Cn3ccnc3[N+](=O)[O-])on2)c1,12
2,O=[N+]([O-])c1nccn1Cc1cc(-c2ccc(O)cc2)no1,0.6
3,O=[N+]([O-])c1nccn1Cc1cc(-c2ccc(N3CCN(CCO)CC3)cc2)no1,7.5
4,CCN1CCN(c2ccc(-c3cc(Cn4ccnc4[N+](=O)[O-])on3)cc2)CC1,1.6
5,COc1ccc(-c2cc(Cn3ccnc3[N+](=O)[O-])on2)cc1[N+](=O)[O-],24.2
6,CN1CCN(c2ccc(-c3cc(Cn4ccnc4[N+](=O)[O-])on3)cc2)CC1,0.4
7,O=[N+]([O-])c1ccc(-c2cc(Cn3ccnc3[N+](=O)[O-])on2)o1,0.9
8,COc1ccc(-c2cc(Cn3ccnc3[N+](=O)[O-])on2)cc1OC,0.2

# Tested on: not listed separately
# Experiment: Toxicity in BALB/c mouse infected with Trypanosoma cruzi Y trypomastigotes assessed as body weight loss at 25 mg/kg/day, po administrated via gavage for consecutive 10 days
# Assay type: organism-based
# Settings: in vivo, 240 h, time 10 day
row,SMILES,Activity
1,COc1ccc(-c2cc(Cn3ccnc3[N+](=O)[O-])on2)cc1OC,Toxic

# Tested on: Trypanosoma cruzi
# Experiment: Effect on infection-mediated heart weight in Trypanosoma cruzi Y strain trypomastigotes infected in BALB/c mouse model at 25 mg/kg/day, po administered for consecutive 10 days
# Assay type: functional, organism-based
# Settings: time 10.0 day
row,SMILES,Activity
1,O=[N+]([O-])c1nccn1Cc1cc(-c2ccc(O)cc2)no1,inactive
2,CCN1CCN(c2ccc(-c3cc(Cn4ccnc4[N+](=O)[O-])on3)cc2)CC1,inactive
3,CN1CCN(c2ccc(-c3cc(Cn4ccnc4[N+](=O)[O-])on3)cc2)CC1,inactive
4,COc1ccc(-c2cc(Cn3ccnc3[N+](=O)[O-])on2)cc1OC,inactive

# Tested on: not listed separately
# Experiment: Selectivity index, ratio of CC50 for monkey LLC-MK2 cells to IC50 for Trypanosoma cruzi Tulahuen lacZ expressing beta-galactosidase amastigotes infected monkey LLC-MK2 cells
# Assay type: toxicity
# Settings: read-out: Ratio CC50/IC50
row,SMILES,selectivity ratio
1,COc1cc(OC)c(Cl)c(-c2cc(Cn3ccnc3[N+](=O)[O-])on2)c1,> 4.2
2,O=[N+]([O-])c1nccn1Cc1cc(-c2ccc(O)cc2)no1,> 87.7
3,O=[N+]([O-])c1nccn1Cc1cc(-c2ccc(N3CCN(CCO)CC3)cc2)no1,> 6.7
4,CCN1CCN(c2ccc(-c3cc(Cn4ccnc4[N+](=O)[O-])on3)cc2)CC1,> 30.8
5,COc1ccc(-c2cc(Cn3ccnc3[N+](=O)[O-])on2)cc1[N+](=O)[O-],> 2.1
6,CN1CCN(c2ccc(-c3cc(Cn4ccnc4[N+](=O)[O-])on3)cc2)CC1,> 125
7,O=[N+]([O-])c1ccc(-c2cc(Cn3ccnc3[N+](=O)[O-])on2)o1,> 51
8,COc1ccc(-c2cc(Cn3ccnc3[N+](=O)[O-])on2)cc1OC,> 200

# Tested on: Trypanosoma cruzi
# Experiment: Binding affinity to Trypanosoma cruzi type I nitro reductase at 25 uM incubated for 5 mins in the presence of NADH by microplate reader analysis
# Settings: not given
row,SMILES,Kobs [s⁻¹]
1,O=[N+]([O-])c1nccn1Cc1cc(-c2ccc(O)cc2)no1,0.68
2,CCN1CCN(c2ccc(-c3cc(Cn4ccnc4[N+](=O)[O-])on3)cc2)CC1,0.48
3,COc1ccc(-c2cc(Cn3ccnc3[N+](=O)[O-])on2)cc1[N+](=O)[O-],0.57
4,CN1CCN(c2ccc(-c3cc(Cn4ccnc4[N+](=O)[O-])on3)cc2)CC1,0.38
5,O=[N+]([O-])c1ccc(-c2cc(Cn3ccnc3[N+](=O)[O-])on2)o1,1.27
6,COc1ccc(-c2cc(Cn3ccnc3[N+](=O)[O-])on2)cc1OC,0.82

# Tested on: not listed separately
# Experiment: Toxicity in BALB/c mouse infected with Trypanosoma cruzi Y trypomastigotes assessed as body weight gain at 25 mg/kg/day, po administrated via gavage for consecutive 10 days
# Assay type: organism-based
# Settings: in vivo, 240 h, time 10 day
row,SMILES,Activity
1,O=[N+]([O-])c1nccn1Cc1cc(-c2ccc(O)cc2)no1,Non-Toxic
2,CCN1CCN(c2ccc(-c3cc(Cn4ccnc4[N+](=O)[O-])on3)cc2)CC1,Non-Toxic
3,CN1CCN(c2ccc(-c3cc(Cn4ccnc4[N+](=O)[O-])on3)cc2)CC1,Non-Toxic

# Tested on: Trypanosoma cruzi
# Experiment: Binding affinity to Trypanosoma cruzi type I nitro reductase at 10 uM incubated for 5 mins in the presence of NADH by microplate reader analysis
# Settings: not given
row,SMILES,Kobs [s⁻¹]
1,O=[N+]([O-])c1nccn1Cc1cc(-c2ccc(O)cc2)no1,0.47
2,CCN1CCN(c2ccc(-c3cc(Cn4ccnc4[N+](=O)[O-])on3)cc2)CC1,0.23
3,COc1ccc(-c2cc(Cn3ccnc3[N+](=O)[O-])on2)cc1[N+](=O)[O-],0.54
4,CN1CCN(c2ccc(-c3cc(Cn4ccnc4[N+](=O)[O-])on3)cc2)CC1,0.21
5,O=[N+]([O-])c1ccc(-c2cc(Cn3ccnc3[N+](=O)[O-])on2)o1,0.75
6,COc1ccc(-c2cc(Cn3ccnc3[N+](=O)[O-])on2)cc1OC,0.57

# Tested on: Trypanosoma cruzi
# Experiment: Antitrypanosomal activity against Trypanosoma cruzi Y strain trypomastigotes infection induced hepatosplenomegaly BALB/c male mouse model assessed as change in infection-mediated spleen weight at 25 mg/kg/day, po administrated for consecutive 10 days
# Assay type: functional, organism-based
# Settings: time 10.0 day
row,SMILES,Activity
1,O=[N+]([O-])c1nccn1Cc1cc(-c2ccc(O)cc2)no1,Active
2,CCN1CCN(c2ccc(-c3cc(Cn4ccnc4[N+](=O)[O-])on3)cc2)CC1,Active
3,CN1CCN(c2ccc(-c3cc(Cn4ccnc4[N+](=O)[O-])on3)cc2)CC1,Active
4,COc1ccc(-c2cc(Cn3ccnc3[N+](=O)[O-])on2)cc1OC,Active

# Tested on: Trypanosoma cruzi
# Experiment: Antitrypanosomal activity against Trypanosoma cruzi Y strain trypomastigotes infection induced hepatosplenomegaly BALB/c male mouse model assessed as change in infection-mediated liver weight at 25 mg/kg/day, po administrated for consecutive 10 days
# Assay type: functional, organism-based
# Settings: time 10.0 day
row,SMILES,Activity
1,O=[N+]([O-])c1nccn1Cc1cc(-c2ccc(O)cc2)no1,Active
2,CCN1CCN(c2ccc(-c3cc(Cn4ccnc4[N+](=O)[O-])on3)cc2)CC1,Active
3,CN1CCN(c2ccc(-c3cc(Cn4ccnc4[N+](=O)[O-])on3)cc2)CC1,Active
4,COc1ccc(-c2cc(Cn3ccnc3[N+](=O)[O-])on2)cc1OC,Active

# Tested on: not listed separately
# Experiment: Toxicity in BALB/c mouse infected with Trypanosoma cruzi Y trypomastigotes assessed as animal survival at 25 mg/kg/day, po administrated via gavage for consecutive 10 days relative to control
# Assay type: organism-based
# Settings: in vivo, time 10 day
row,SMILES,survival at 240 h [%]
1,O=[N+]([O-])c1nccn1Cc1cc(-c2ccc(O)cc2)no1,100
2,CCN1CCN(c2ccc(-c3cc(Cn4ccnc4[N+](=O)[O-])on3)cc2)CC1,100
3,CN1CCN(c2ccc(-c3cc(Cn4ccnc4[N+](=O)[O-])on3)cc2)CC1,100

# Tested on: Leishmania amazonensis
# Experiment: Antileishmanial activity against Leishmania amazonensis IFLA/BR/1967/PH8 amastigotes infected in mouse peritoneal macrophage assessed as inhibition of parasite growth pre-infected in cells for 4 hrs followed by compound addition and measured after 24 hrs by Giemsa staining based analysis
# Assay type: functional, organism-based
# Settings: IFLA/BR/1967/PH8, Peritoneal macrophage
row,SMILES,IC50 [µM]
1,COc1cc(OC)c(Cl)c(-c2cc(Cn3ccnc3[N+](=O)[O-])on2)c1,2.2
2,O=[N+]([O-])c1nccn1Cc1cc(-c2ccc(O)cc2)no1,18.7
3,O=[N+]([O-])c1nccn1Cc1cc(-c2ccc(N3CCN(CCO)CC3)cc2)no1,5.6
4,CCN1CCN(c2ccc(-c3cc(Cn4ccnc4[N+](=O)[O-])on3)cc2)CC1,5.5
5,COc1ccc(-c2cc(Cn3ccnc3[N+](=O)[O-])on2)cc1[N+](=O)[O-],15.2
6,CN1CCN(c2ccc(-c3cc(Cn4ccnc4[N+](=O)[O-])on3)cc2)CC1,15.6
7,COc1ccc(-c2cc(Cn3ccnc3[N+](=O)[O-])on2)cc1OC,19.6

# Tested on: Trypanosoma cruzi
# Experiment: Antitrypanosomal activity against Trypanosoma cruzi Y trypomastigotes infected in BALB/c mouse model assessed as reduction of parasitemia level at 25 mg/kg/day, po administered via gavage for consecutive 10 days and measured on day 5,7,9 and 11
# Assay type: functional, organism-based
# Settings: time 11.0 day
row,SMILES,Activity
1,O=[N+]([O-])c1nccn1Cc1cc(-c2ccc(O)cc2)no1,inactive
2,CN1CCN(c2ccc(-c3cc(Cn4ccnc4[N+](=O)[O-])on3)cc2)CC1,inactive
3,COc1ccc(-c2cc(Cn3ccnc3[N+](=O)[O-])on2)cc1OC,inactive

# Tested on: not listed separately
# Experiment: Toxicity in BALB/c mouse infected with Trypanosoma cruzi Y trypomastigotes assessed as animal survival at 25 mg/kg/day, po administrated via gavage for consecutive 10 days
# Assay type: organism-based
# Settings: in vivo, 240 h, time 10 day
row,SMILES,Activity
1,COc1ccc(-c2cc(Cn3ccnc3[N+](=O)[O-])on2)cc1OC,Toxic

# Tested on: Trypanosoma cruzi
# Experiment: Antitrypanosomal activity against Trypanosoma cruzi Y trypomastigotes infected in BALB/c mouse model assessed as reduction of parasitemia level at 25 mg/kg/day, po administered via gavage observed on 7 day of post infection relative to control
# Assay type: functional
# Design: scale not given: the % may be the effect or the level left
# Settings: not given
row,SMILES,Activity [%]
1,CCN1CCN(c2ccc(-c3cc(Cn4ccnc4[N+](=O)[O-])on3)cc2)CC1,77
